Source: US8193185B2, “Use of tryptanthrin compounds for immune potentiation” (Novartis Vaccines and Diagnostics, Inc., priority 2003, dated 2012)

system: human peripheral blood mononuclear cells (PBMC); test: HTS assay for small molecule immune potentiators: TNF-a production by human PBMC (sandwich ELISA); assay type: cell-based; conditions: human PBMC 500,000 per mL, 18 h at 37° C., secreted TNF by sandwich ELISA
From the text: Candidate small molecule immune potentiators can be identified in vitro. Compounds are screened in vitro for their ability to stimulate human peripheral blood mononuclear cells to produce cytokines (e.g. TNF-a and IL-12 p40). Apoptosis inducing small molecules may be identified having this activity. These small molecule immunopotentiators have potential utility as adjuvants and immunotherapeutics.
In an assay procedure (High Throughput Screening (HTS)) for small molecule immune potentiators (SMIPs), human peripheral blood mononuclear cells (PBMC), 500,000 per mL in RPMI 1640 medium with 10% FCS, are distributed in 96 well plates (100,000 per well) already containing 5 μM of compound in DMSO. The PBMCs are incubated for 18 h at 37° C. in 5% CO2. Their ability to produce cytokines in response to the small molecule compounds is determined using a modified sandwich ELISA.
Briefly supernatants from the PBMC cultures are assayed for secreted TNF using a primary plate bound antibody for capture followed by a secondary biotinylated anti-TNF antibody forming a sandwich. The biotinylated second antibody is then detected using streptavidin-Europium and the amount of bound europium is determined by time resolved fluorescence. Compounds are screened for their TNF inducing activity that is measured in the assay as increased Europim counts over cells incubated in RPMI medium alone. “Hits” are selected based on their TNF-inducing activity relative to an optimal dose of lipopolysaccaride LPS (1 μg/ml), a strong TNF inducer. The robustness of the assay and low backgrounds have allowed for the routine selection of hits with ˜10% of LPS activity that is normally between 5-10× background (cells alone). Selected hits are then subjected to confirmation for their ability to induce cytokines from multiple donors at decreasing concentrations. Those compounds with consistent activity at or below 5 μM are considered confirmed for the purposes of this assay. The assay is readily modified for screening for compounds effective at higher or lower concentrations.

| SMILES | minimal effective concentration [µM] |
| --- | --- |
| O=C1c2cc(CCCCCCOP(=O)(O)O)ccc2-n2c1nc1ncccc1c2=O [Compound 1035, 6-(5,11-dioxo-5,11-dihydropyrido[2′,3′:4,5]py-rimido[1,2-a]indol-9-yl)hexyl dihydrogen phosphate] | ≤ 1.5 |
| O=C1c2cc(OC(F)(F)F)ccc2-n2c1nc1ncccc1c2=O [Compound 1036, 9-[(trifluoromethyl)oxy]pyri-do[2′,3′:4,5]pyrimido[1,2-a]indole-5,11-dione] | ≤ 1.5 |
| O=C1c2ccccc2-n2c1nc1ccccc1c2=O [Compound 1037, indolo[2,1-b]quinazoline-6,12-dione] | ≥ 20 |
| O=C1c2cc(Cl)ccc2-n2c1nc1ccccc1c2=O [Compound 1038, 8-chloroindolo[2,1-b]quinazoline-6,12-dione] | ≥ 20 |
| CCOC(=O)c1ccc2c(c1)C(=O)c1nc3ccccc3c(=O)n1-2 [Compound 1039, ethyl 6,12-dioxo-6,12-dihydroindolo[2,1-b]quinazoline-8-carboxylate] | ≥ 20 |
| O=C1c2cc(I)ccc2-n2c1nc1c(O)cccc1c2=O [Compound 1040, 4-hydroxy-8-iodoindolo[2,1-b]quinazoline-6,12-dione] | ≥ 20 |
| O=C1c2cc(I)ccc2-n2c1nc1c(Cl)cc(Cl)cc1c2=O [Compound 1041, 2,4-dichloro-8-iodoindolo[2,1-b]quinazoline-6,12-dione] | ≥ 20 |
| O=C1c2cc(I)ccc2-n2c1nc1ccc(I)cc1c2=O [Compound 1042, 2,8-diiodoindolo[2,1-b]quinazoline-6,12-dione] | ≥ 20 |
| O=C1c2cc(I)ccc2-n2c1nc1c(I)cc(I)cc1c2=O [Compound 1043, 2,4,8-triiodoindolo[2,1-b]quinazoline-6,12-dione] | ≥ 20 |
| O=C1c2cc(F)ccc2-n2c1nc1c(OCc3ccccc3)cccc1c2=O [Compound 1044, 8-fluoro-4-[(phenylmethyl)oxy]indolo [2,1-b]quinazoline-6,12-dione] | ≥ 20 |
| O=C1c2cc(Cl)ccc2-n2c1nc1cc(N3CCOCC3)ccc1c2=O [Compound 1045, 8-chloro-3-morpholin-4-ylindolo[2,1-b]quinazoline-6,12-dione] | ≥ 20 |
| O=C1c2cc(C(F)(F)F)ccc2-n2c1nc1ccccc1c2=O [Compound 1046, 8-(trifluoromethyl)indolo[2,1-b]quinazoline-6,12-dione] | ≥ 20 |
| CN(CC(=O)O)c1ccc2c(=O)n3c(nc2c1)C(=O)c1cc(Cl)ccc1-3 [Compound 1047, [(8-chloro-6,12-dioxo-6,12-dihydroindolo[2,1-b]quinazolin-3-yl)(methyl)amino]acetic acid] | ≥ 20 |
| CN(CCOC(=O)CCC(=O)O)c1ccc2c(=O)n3c(nc2c1)C(=O)c1cc(Cl)ccc1-3 [Compound 1048, 4-({2-[(8-chloro-6,12-dioxo-6,12-dihydroindolo[2,1-b]quinazolin-3-yl)(methyl)amino]ethyl}oxy)-4-oxobutanoic acid] | ≥ 20 |
| CCCCCCCC(=O)OCCN(C)c1ccc2c(=O)n3c(nc2c1)C(=O)c1cc(Cl)ccc1-3 [Compound 1049, 2-[(8-chloro-6,12-dioxo-6,12-dihydroindolo[2,1-b]quinazolin-3-yl)(methyl)amino]ethyl octanoate] | ≥ 20 |
| CN(CCO)c1ccc2c(=O)n3c(nc2c1)C(=O)c1cc(OC(F)(F)F)ccc1-3 [Compound 1050, 3-[(2-hydroxyethyl)(methyl)a-mino]-8-[(trifluoromethyl)oxy]indol o[2,1-b]quinazoline-6,12-dione] | ≥ 20 |
| O=C1c2cc(Cl)ccc2-n2c1nc1cc(SCCO)ccc1c2=O [Compound 1051, 8-chloro-3-[(2-hydroxyethyl)thio]indolo[2,1-b]quinazoline-6,12-dione] | ≥ 20 |
| CC(=O)OCCCCCCc1ccc2c(c1)C(=O)c1nc3ncccc3c(=O)n1-2 [Compound 1052, 6-(5,11-dioxo-5,11-dihydropyrido[2′,3′:4,5]py-rimido[1,2-a]indol-9-yl)hexyl acetate] | ≥ 20 |
